What was measured:
[1] = test system: Wistar rats showing proteinuria; test: Effect of treatment on serum protein (biuret method) in BSA-injected rats; assay type: in vivo, rat; settings: Wistar rats prepared as in Example 1; intragastric twice daily for six weeks; yeast compositions 1.0 ml/100 g, pednisone 0.2 mg/100 g
Experimental: The activated yeast compositions used in the following examples were prepared as described above, using Saccharomyces cerevisiae Hansen AS2.502, cultured in the presence of an alternating electric field having the electric field frequency and field strength exemplified in the parentheses following the recommended ranges listed in Section IV, supra. Control (i.e., untreated) yeast compositions were those prepared in the same manner as described in Section VI, supra, except that the yeast cells were cultured in the absence of EMFs. Unless otherwise specified, all compositions of interest were administered to the animals by intragastric feeding. […]
Subsequently, a composition of interest was administered twice daily to each of the four groups of rats for six weeks. […] The amount of protein in the supernatant (serum protein) was determined.
To determine the amount of serum protein, 50 μl of the supernatant and standard serum protein were added into two separate tubes. […] The mixtures were placed in water bath at 37° C. for 10 minutes and measured for absorption at 546 nm. The concentration of serum protein was calculated according to the following formula: [Serum Protein]=[absorption for the testing sample/absorption for the standard]×[standard serum protein](g/dl).

[2] = test system: Wistar rats showing proteinuria; test: Effect of treatment on proteinuria (urinary protein by sulfosalicylic acid turbidimetry) in BSA-injected rats; assay type: in vivo, rat; settings: BSA 350 mg/kg i.v., intragastric twice daily, yeast compositions 1.0 ml/100 g, pednisone 0.25 mg/100 g
Experimental: The activated yeast compositions used in the following examples were prepared as described above, using Saccharomyces cerevisiae Hansen AS2.502, cultured in the presence of an alternating electric field having the electric field frequency and field strength exemplified in the parentheses following the recommended ranges listed in Section IV, supra. Control (i.e., untreated) yeast compositions were those prepared in the same manner as described in Section VI, supra, except that the yeast cells were cultured in the absence of EMFs. Unless otherwise specified, all compositions of interest were administered to the animals by intragastric feeding.
To test the ability of the activated yeast compositions to reduce the level of urinary protein, sixty healthy Wistar rats with average weight of about 200-220 g (4-7 months old, half of them male and the other half female) were chosen and males and females were kept in separate cages. […] Urine samples were collected from the fine cancellated base of metabolic cages, and the amount of protein in the samples was determined by […]. […]
The amount of urinary protein was determined by sulfosalicylic acid turbidimetry. The volume of each urine sample was first measured (ml). […] Ten minutes later, the absorption of the sample test tube was measured at 620 nm against the control tube. […]

C[C@]12C=CC(=O)C=C1CC[C@@H]1[C@@H]2C(=O)C[C@@]2(C)[C@H]1CC[C@]2(O)C(=O)CO [Pednisone, pednisone (metacortandiacin)]
Serum Protein [1]: 6.41 ± 3.32 g/dL | Urinary Protein (mg in 100 ml urine sample) in a 24-hour Period, 8-Week Treatment ([2]; last day of eighth week): 4.22 ± 1.34 mg in 100 ml urine sample | Urinary Protein (mg in 100 ml urine sample) in a 24-hour Period, 4-Week Treatment ([2]; last day of fourth week): 4.57 ± 1.42 mg in 100 ml urine sample

Source: patent US20050106168A1, “Methods and compositions for treating nephrotic syndrome” (priority 2003, published 2005)
